Source: US9090645B2, “Therapeutic compositions and methods of treatment with capsianoside-type compounds” (BMB Patent Holding Corporation, priority 2006, dated 2015)
“And” between values parts separate entries of the source, which are not always exact repeats. Identical values can stand only once.

Columns and labels:
[1] = tested on: capsaicin-treated hindpaw; experiment: Analgesic Bioassay: rat hindpaw withdrawal latency assay; type: in vivo, Sprague-Dawley rats; details: for Avg. Cmpd. @ 5 min (hindpaw withdrawal latency): 5 min after compound on capsaicin-treated hindpaw; for Avg. Cmpd. @ 5 min (hindpaw withdrawal latency) / Avg. Cmpd. @ 20 min (hindpaw withdrawal latency) / Avg. Cmpd @ 30 min (hindpaw withdrawal latency): 498: 0.27 mg, 660: 0.33 mg; for Avg. Cmpd. @ 5 min (hindpaw withdrawal latency) / Avg. Cmpd. @ 20 min (hindpaw withdrawal latency) / Avg. Cmpd @ 30 min (hindpaw withdrawal latency) / Avg. Cap. @ 20 min (hindpaw withdrawal latency) / Avg. Cap. @ 25 min (hindpaw withdrawal latency) / Avg. Cap. @ 30 min (hindpaw withdrawal latency) / Avg. All Capsaicin (hindpaw withdrawal latency) / Avg. All Baselines (hindpaw withdrawal latency): n=5; for Avg. Cmpd. @ 20 min (hindpaw withdrawal latency): 20 min after compound on capsaicin-treated hindpaw; for Avg. Cmpd @ 30 min (hindpaw withdrawal latency): 30 min after compound on capsaicin-treated hindpaw; for Avg. Cap. @ 20 min (hindpaw withdrawal latency) / Avg. Cap. @ 25 min (hindpaw withdrawal latency) / Avg. Cap. @ 30 min (hindpaw withdrawal latency) / Avg. All Capsaicin (hindpaw withdrawal latency) / Avg. All Baselines (hindpaw withdrawal latency): Table 7; for Avg. Cap. @ 20 min (hindpaw withdrawal latency): 20 min post-capsaicin; for Avg. Cap. @ 20 min (hindpaw withdrawal latency) / Avg. Cap. @ 25 min (hindpaw withdrawal latency) / Avg. Cap. @ 30 min (hindpaw withdrawal latency) / Avg. All Capsaicin (hindpaw withdrawal latency): before compound; for Avg. Cap. @ 25 min (hindpaw withdrawal latency): 25 min post-capsaicin; for Avg. Cap. @ 30 min (hindpaw withdrawal latency): 30 min post-capsaicin; for Avg. All Capsaicin (hindpaw withdrawal latency): all post-capsaicin times; for Avg. All Baselines (hindpaw withdrawal latency): before any treatment
Procedure: A rat hindpaw assay was used to determine the therapeutic effectiveness of various extracts/compounds as analgesics in the present invention.
Sprague-Dawley rats (225-250 g, male) were anesthetized with urethane and placed on their sides on a disposable Chux pad. Both hindpaws for each rat were blackened with India ink which was allowed to dry for 10 minutes. An ELH projector lamp calibrated to a standard mW/cm^2 was used as a pain stimulus and was condensed into an area of 5×15 mm on each hindpaw and placed perpendicular to, and 72 mm from, each hindpaw.
Multiple baseline hindpaw withdrawal latency times were recorded (in seconds) for each medial and each lateral surface of each hindpaw. Subsequently, 100 μl of 1 μmolar capsaicin was applied with a pipette to cover one hindpaw of each animal and allowed to dry for 10 minutes, rendering the capsaicin-treated hindpaw hypersensitive to pain stimulus relative to the non-capsaicin treated hindpaw (and thereby decreasing the withdrawal latency period for the capsaicin-treated hindpaw relative to the non-treated hindpaw).
Both hindpaws were then re-blackened with India ink which was allowed to dry for 10 minutes, and hindpaw withdrawal latencies were recorded for both the capsaicin-treated and untreated hindpaws on both the medial and lateral aspects of both hindpaws at 20, 25 and 30 minutes. […] By contrast, only minor drops in the withdrawal latency periods of the untreated hindpaws was seen, and the effect that was observed is believed to be due to the central mechanism effect of capsaicin-treatment on the other hindpaw.
To determine the analgesic properties of each fraction, 100 μl of each fraction were applied to the capsaicin-treated hindpaw by pipette and permitted to dry (the untreated hindpaw was not treated with the fraction). Hindpaw withdrawal latencies were then recorded at 5, 20 and 30 minutes for both the capsaicin/fraction-treated hindpaw and the untreated hindpaw. An increase in the hindpaw withdrawal time was indicative of an analgesic effect by the applied fraction.

[2] = tested on: carrageenan-induced inflammation in air pouch; experiment: Inflammation Bioassay: mouse air pouch assay (carrageenan), white blood cells in exudates; type: in vivo, mice
Procedure: A mouse air pouch assay was used to determine the therapeutic effectiveness of various extracts/compounds as anti-inflammatory agents in the present invention.
To induce air pouches, 10-15 week old mice were injected subcutaneously on the back with 3 ml of air.
On day 2, the pouches were reinflated with 1.5 m. of air.
On day 6, inflammation was induced by injecting 1 ml of a suspension of carrageenan (2% weight/volume in calcium-free and magnesium-free phosphate buffered saline (PBS) solution) into the air pouch.
100 μL of solution including test compounds were injected with the carrageenan (additional 100 μL of PBS were injected into the controls).
After 4 hours, the mice were sacrificed by including CO2 narcosis, the pouches were flushed with 2 ml of PBS, and exudates were harvested.
Exudates were diluted 1:1 with 0.015% methylene blue in PBS.
White blood cells were counted in a standard hemocytometer chamber (American Optical, Buffalo, N.Y.).

[3] = individual mice, 100 μL test solution injected with carrageenan, 4 hours

| SMILES | Avg. Cmpd. @ 5 min (hindpaw withdrawal latency) [1] | Avg. Cmpd. @ 20 min (hindpaw withdrawal latency) [1] | Avg. Cmpd @ 30 min (hindpaw withdrawal latency) [1] | analgesic activity (in words) ([1]; Analgesic Bioassay (Example 1)) | Avg. Cap. @ 20 min (hindpaw withdrawal latency) [1] | Avg. Cap. @ 25 min (hindpaw withdrawal latency) [1] | Avg. Cap. @ 30 min (hindpaw withdrawal latency) [1] | Avg. All Capsaicin (hindpaw withdrawal latency) [1] | Avg. All Baselines (hindpaw withdrawal latency) [1] | Average Cells (10^6/ml) (white blood cells in exudate) ([2]; average of five mice, control mice (PBS) 2.67) | Cells (10^6/ml) (white blood cells in exudate) [2, 3] | Cells/ml (white blood cells in exudate) [2, 3] | anti-inflammatory effects compared with methotrexate and dexamethasone ([2]; mouse air pouch) |
| --- | --- | --- | --- | --- | --- | --- | --- | --- | --- | --- | --- | --- | --- |
| C=C[C@](C)(CC/C=C(\C)CC/C=C(\C)CC(O)/C=C(\C)C(=O)O)O[C@@H]1OC(CO)[C@@H](O)C(O)C1O (relative stereo) [Compound 498, 14-(beta-D-glucopyranosyloxy)-4-hydroxy-2,6,10,14-tetramethyl-2,6,10,15-hexadecatetraenoic acid [4R-(2E,4R*,6E,10E,14S*)]] | 13.6 s | 9.4 s | 8.1 s | strong analgesic effect | 7.4 s | 7.956 s | 5.4 s | 6.9 s | 10.77 s | – | – | – | – |
| C=C[C@](C)(CC/C=C(\C)CC/C=C(\C)CC(O)/C=C(\C)C(=O)O)O[C@@H]1OC(CO)[C@@H](O)C(O)C1O[C@@H]1OC(CO)[C@@H](O)C(O)C1O (stereo partly drawn) [Compound 660, capsianoside I] | 10.5 s | 9.6 s | 6.5 s | – | 9.5 s | 6.4 s | 5.9 s | 7.3 s | 9.5 s | 1.54 10^6/ml | 1.30 10^6/ml and 2.49 10^6/ml (2×) and 0.32 10^6/ml and 1.09 10^6/ml | 1.30E+06 Cells/ml and 2.49E+06 Cells/ml (2×) and 3.23E+05 Cells/ml and 1.09E+06 Cells/ml | comparable to 0.5-1.0 mg/kg/week of chronic methotrexate, or 1.5 mg/kg acute dose of dexamethasone |
